Earlier results, collected in patent US10172913B2, “Orally disintegrating solid pharmaceutical dosage unit containing a partus control substance” (Oxytone Bioscience B.V., priority 2014, dated 2019).
Bridge positions count the residues as written; N and C are the ends. Square brackets hold non-standard residues; d marks the D form. Peptide text beside a SMILES is read from it. Orn = NCCC[C@H](N)C(=O)O; Mpa = O=C(O)CCS

Experiments:
[1] = in vivo
[2] = lyophilized

| Compound | half-life in the blood [1] | time stable at room temperature [2] [weeks] |
| --- | --- | --- |
| CC[C@H](C)[C@@H]1NC(=O)[C@H](Cc2ccc(O)cc2)NC(=O)[C@@H](N)CSSC[C@@H](C(=O)N2CCC[C@H]2C(=O)N[C@@H](CC(C)C)C(=O)NCC(N)=O)NC(=O)[C@H](CC(N)=O)NC(=O)[C@H](CCC(N)=O)NC1=O [Oxytocin, cysteine-tyrosine-isoleucine-glutamine-asparagine-cysteine-proline-leucine-glycine-amide] | about three | – |
| CCOc1ccc(C[C@H]2NC(=O)CCSSC[C@@H](C(=O)N3CCC[C@H]3C(=O)N[C@@H](CCCN)C(=O)NCC(N)=O)NC(=O)[C@H](CC(N)=O)NC(=O)[C@H]([C@@H](C)O)NC(=O)[C@H]([C@@H](C)CC)NC2=O)cc1 [atosiban] ([Mpa][dY](Et)ITNCP[Orn]G-NH2; disulfide 1-6) | – | 3 |
